Laboratory results reported in patent US7569554B2, “Synergistic treatment of cancer using immunomers in conjunction with therapeutic agents” (Idera Pharmaceuticals, Inc., priority 2003, dated 2009).

Key:
[1] = system: BALB/c mouse spleen cells; experiment: Cytokine secretion in BALB/c mouse spleen cell cultures (sandwich ELISA); format: cell-based; details: for Induction of IL-12: FIG. 7A; for Induction of IL-12 / Induction of IL-6: compared with Oligo 1; for Induction of IL-6: FIG. 7B
Method: (§1) The secretion of IL-12 and IL-6 in vertebrate cells, preferably BALB/c mouse spleen cells or human PBMC, was measured by sandwich ELISA. The required reagents including cytokine antibodies and cytokine standards were purchased form PharMingen, San Diego, Calif. ELISA plates (Costar) were incubated with appropriate antibodies at 5 μg/mL in PBSN buffer (PBS/0.05% sodium azide, pH 9.6) overnight at 4° C. and then blocked with PBS/i % BSA at 37° C. for 30 minutes. Cell culture supernatants and cytokine standards were appropriately diluted with PBS/10% FBS, added to the plates in triplicate, and incubated at 25° C. for 2 hours. Plates were overlaid with 1 μg/mL appropriate biotinylated antibody and incubated at 25° C. for 1.5 hours. The plates were then washed extensively with PBS-T Buffer (PBS/0.05% Tween 20) and further incubated at 25° C. for 1.5 hours after adding streptavidin conjugated peroxidase (Sigma, St. Louis, Mo.). The plates were developed with Sure Blue™ (Kirkegaard and Perry) chromogenic reagent and the reaction was terminated by adding Stop Solution (Kirkegaard and Perry). The color change was measured on a Ceres 900 HDI Spectrophotometer (Bio-Tek Instruments).
(§2) In all instances, the levels of IL-12 and IL-6 in the cell culture supernatants were calculated from the standard curve constructed under the same experimental conditions for IL-112 and IL-6, respectively. The levels of IL-10, IFN-gamma and TNF-α in the cell culture supernatants were calculated from the standard curve constructed under the same experimental conditions for IL-10, IFN-gamma and TNF-α, respectively.

BALB/c mice = experiment: In vivo serum cytokine induction; set-up: species or system mouse; details: 4 hrs
Method: To assess serum cytokine levels, BALB/c mice (n=5) were injected intraperitoneally (i.p), subcutaneously (s.c) or intramuscularly (i.m) with IMO compounds at 10 mg/kg (single dose). Sera was collected by retro-orbital bleeding at 4 hrs of IMO administration and determined IL-112 and IL-6 by sandwich ELISA. Cytokine antibodies and standards were purchased from PharMingen (San Diego, Calif.).
To evaluate the immunopharmacological effects in vivo, IMO compounds, CpG immunomers, and non-CpG oligos were administered to BALB/c mice i.p, s.c or i.m at a dose of 10 mg/kg and their serum was evaluated for IL-12 and IL-6 after 4 hrs.

[2] = system: vertebrate cells, preferably BALB/c mouse spleen cells or human PBMC; experiment: Immunostimulatory activity, IL-12/IL-6 secretion (Tables 9-12, cell culture not given); format: cell-based
Method: as §1, §2

human PBMC = experiment: Cytokine secretion in human PBMC cultures (sandwich ELISA); format: cell-based
Method: as §1
Human peripheral blood mononuclear cells (PBMCs) were isolated from peripheral blood of healthy volunteers by Ficoll-Paque density gradient centrifugation (Histopaque-1077, Sigma, St. Louis, Mo.). Briefly, heparinized blood was layered onto the Histopaque-1077 (equal volume) in a conical centrifuge and centrifuged at 400×g for 30 minutes at room temperature. The buffy coat, containing the mononuclear cells, was removed carefully and washed twice with isotonic phosphate buffered saline (PBS) by centrifugation at 250×g for 10 minutes. The resulting cell pellet was then resuspended in RPMI 1640 medium containing L-glutamine (MediaTech, Inc., Hemdon, Va.) and supplemented with 10% heat inactivated FCS and penicillin-streptomycin (100 U/ml). Cells were cultured in 24 well plates for different time periods at 1×10^6 cells/ml/well in the presence or absence of oligonucleotides. At the end of the incubation period, supernatants were harvested and stored frozen at −70° C. until assayed for various cytokines including IL-6 (BD Pharmingen, San Diego, Calif.), IL-10 (BD Pharmingen), IL-12 (BioSource International, Camarillo, Calif.), IFN-α (BioSource International) and -γ(BD Pharmingen) and TNF-α(BD Pharmingen) by sandwich ELISA.
as §2

[3] = Intraperitoneal (i.p), 10 mg/kg

## 3′-TTCCAGCTCGCAAGAG-5′-5′-GAGAACGCTCGACCTT-3′ [Immunomer 3]
[1]
  Induction of IL-12: equal or weaker ability to produce immune stimulation compared with oligo 1
  Induction of IL-6: equal or weaker ability to induce immune stimulation compared with Oligo 1

## 5-GAGAACGCTCGACCTT-3′-3′-TTCCAGCTCGCAAGAG-5′ [Immunomer 2]
[1]
  Induction of IL-12: stronger inducer of IL-12 than monomeric Oligo 1
  Induction of IL-6: stronger inducer of IL-6 than monomeric Oligo 1
[1]; FIGS. 7A-C
  Elevation of IL-12, IL-6 and IL-10: elevates IL-12 and IL-6, but not IL-10 at lower concentrations than Oligonucleotides 1 or 3

## 5′-CTATCTCACCTTCTCTGT-3′ (DNA, backbone not given here) [Non-CpG, reference compound]
BALB/c mice; 10 mg/kg i.p, s.c or i.m
  Serum IL-12 induction: insignificant
BALB/c mice; 10 mg/kg, all three routes of administration
  Serum IL-6 induction: insignificant
BALB/c mice; Intramuscular (i.m), 10 mg/kg
  IL-12 (serum): 1.6 ± 0.07 ng/mL
BALB/c mice; [3]
  IL-6 (serum): 0.7 ± 0.3 ng/mL
  IL-12 (serum): 0.86 ± 0.5 ng/mL
BALB/c mice; Subcutaneous (s.c), 10 mg/kg
  IL-12 (serum): 1.7 ± 0.04 ng/mL

## 5′-CTATCTGACGTTCTCTGT-3′ (DNA, all phosphorothioate, methylation of C not given here) [Oligonucleotide 4]
[1]; 0.3 μg/mL, Table 13
  IL-12: 225 pg/mL
[1]; 1 μg/mL, Table 13
  IL-6: 1462 pg/mL
[2]; 0.3 μg/mL, Table 12
  IL-12: 257 pg/mL
[2]; 1 μg/mL, Table 12
  IL-6: 635 pg/mL
[2]; 3 μg/mL, Table 11
  IL-6: 1892 pg/mL
  IL-12: 1176 pg/mL

## 5′-CTATCTGTCGTTCTCTGT-3′ (phosphorothioate, further chemistry not given here) [Oligo 25, 18mer (PS)]
Human PBMC; donor 1 (D1)
  IFN-γ: 125 pg/mL
  IL-6: 3077 pg/mL
  IL-10: 37 pg/mL
  IL-12: 184 pg/mL
  TNF-α: 537 pg/mL
Human PBMC; donor 2 (D2)
  IFN-γ: 84 pg/mL
  IL-6: 5369 pg/mL
  IL-10: 88 pg/mL
  IL-12: 332 pg/mL
[2]; 3 μg/mL, Table 10
  IL-6: 339 pg/mL
  IL-12: 379 pg/mL

## Immunomer 78: SEQ ID NO: 37, 10mer (DNA CTGACGTTCT; DNA, backbone and methylation of C not given here; immunomer: two 10mer chains joined by non-nucleotidic linker, linker varies, further chemistry not fully specified)
[2]; 0.3 μg/mL, Table 12
  IL-12: 1750 pg/mL
[2]; 1 μg/mL, Table 12
  IL-6: 2258 pg/mL

## Immunomer 79: SEQ ID NO: 37, 10mer (DNA CTGACGTTCT; listed as DNA, chemistry not fully specified)
[2]; 0.3 μg/mL, Table 12
  IL-12: 2255 pg/mL
[2]; 1 μg/mL, Table 12
  IL-6: 2034 pg/mL

## Immunomer 80: SEQ ID NO: 37, 10mer (DNA CTGACGTTCT; listed as DNA, chemistry not fully specified)
[2]; 0.3 μg/mL, Table 12
  IL-12: 1493 pg/mL
[2]; 1 μg/mL, Table 12
  IL-6: 1197 pg/mL

## Immunomer 81: SEQ ID NO: 37, 10mer (DNA CTGACGTTCT; listed as DNA, chemistry not fully specified)
[2]; 0.3 μg/mL, Table 12
  IL-12: 3625 pg/mL
[2]; 1 μg/mL, Table 12
  IL-6: 2642 pg/mL

## Immunomer 82: SEQ ID NO: 37, 10mer (DNA CTGACGTTCT; listed as DNA, chemistry not fully specified)
[2]; 0.3 μg/mL, Table 12
  IL-12: 4248 pg/mL
[2]; 1 μg/mL, Table 12
  IL-6: 2988 pg/mL

## Immunomer 83: SEQ ID NO: 37, 10mer (DNA CTGACGTTCT; listed as DNA, chemistry not fully specified)
[2]; 0.3 μg/mL, Table 12
  IL-12: 1241 pg/mL
[2]; 1 μg/mL, Table 12
  IL-6: 1964 pg/mL
